# Read-outs that look alike come from different tables or passages of the source.
# How the values were obtained:
# [1] = assay type: binding
# Experimental: (§1) Calcium and magnesium affinities of EGTA at high ionic strength were measured by titrating 125 micromole portions of EGTA (Fluka Chemical, puriss grade) with 1.00M KOH (J.T. Baker, low in carbonate). The EGTA was dissolved in 25 ml medium containing 225 mM KCl, 25 mM NaCl, and in some runs 10 mM CaCl2 or 21 mM MgCl2. This solution was stirred in a Radiometer TTA80 Titrator, bubbled continuously with nitrogen, and thermostatted at 18° C. while KOH was added in 0.005 or 0.01 ml aliquots from a ABU80autoburet. The pH was measured with a PHM84 meter, a G2040C electrode and an Ag/AgCl reference electrode connected to the titration solution by a long length of 0.01 inch catheter tubing filled with 3M KCl; this electrode chain was calibrated with phthalate (4.001), phosphate (6.889), and borax (9.245) buffers made according to National Bureau of Standards recipes. The fifty to eighty pH readings in each titration were analyzed by the FORTRAN program SCOGS of Sayce (see reference 36). The resulting proton ionization constants for EGTA were 9.537 and 8.961 with computed uncertainties of ±0.012 and ±0.008 respectively. […] At this ionic strength and any pH>4, the effective stability constant K'Ca may be calculated as (antilog 10.77)·[1 +antilog (3.51-pH)]/[1+antilog (9.537-pH)+antilog (9.537+8.961-2·pH)]in units of liters/mole. […]
# [2] = read-out: apparent dissociation constant for Mg-EGTA, cited from earlier work
# [3] = assay type: binding; remark: listed apart in the source
# Experimental: as §1
# [4] = reference 11; cited from earlier work
# [5] = calculated from tables of Martell & Smith, read-out: apparent dissociation constant for Ca-EGTA, cited from earlier work
# [6] = cited from earlier work
# [7] = reference 11; cited from earlier work; remark: listed apart in the source
smiles,measurement,setting,value
"O=C(O)CN(CCOCCOCCN(CC(=O)O)CC(=O)O)CC(=O)O [EGTA, ethylene glycol bis(beta-aminoethyl ether)-N,N,N',N'-tetracetic acid]",proton pKa for Ca.EGTA,"[1]; 225 mm kcl, 25 mm nacl",3.51±0.49
same,Kd,"[1]; pH 7.02 in 225 mM KCl, 25 mM NaCl at 18° C., freshly determined, read-out: apparent dissociation constant for Ca-EGTA",0.49 µM
same,Kd,"[2]; pH 7.05 in 130 mM KCl, 20 mM NaCl at 37°",8960 µM
same,Kd,[2]; pH 7.18 in 130 mM KCl at 20°,21000 µM
same,proton pKa for Mg.EGTA,"[3]; 225 mm kcl, 25 mm nacl",7.885±0.05
same,Kd,"[3]; pH 7.02 in 225 mM KCl, 25 mM NaCl at 18°, freshly determined, read-out: apparent dissociation constant for Mg-EGTA",99000 µM
same,preference for Mn^2+ over Ca^2+,[4],ca. 20 fold
same,Kd,"[5]; pH 7.00 in 0.1M KCl, 20° C.",0.38 µM
same,Kd,"[5]; pH 7.05 in 130 mM KCl, 20 mM NaCl at 37° C.",0.214 µM
same,Kd,"[5]; pH 7.20 in 0.1M KCl, 20° C.",0.151 µM
same,Kd,"[6]; pH 7.11, reference 11, read-out: effective dissociation constant of EGTA for Zn^2+",0.00427 µM
same,preference for Zn^2+ over Ca^2+,[6]; reference 11,ca. 50 fold
same,preference for Fe^2+ over Ca^2+,[7],ca. 8 fold
